This note sets out measurements from ChEMBL document CHEMBL2424519, “DABCO-promoted one-pot synthesis of heteroaryl-substituted benzenes and their biological evaluation” (2013).

Values after ≈ are worked out from the molar mass of the structure shown. Active and inactive are the calls of the source. The calls are words filed in the database; no cut-off is given here.

Experiment [1] has as its system Candida tropicalis. The experiment is described as follows: Antifungal activity against Candida tropicalis at 10 mg/ml after 7 days by disc diffusion technique. In kind it is functional. The conditions noted are these: 168 h, read-out: IZ.
Experiment [2] has as its system Escherichia coli. Put plainly: Antibacterial activity against Escherichia coli after 24 hrs by agar-diffusion technique. In kind it is functional.
Experiment [3] has as its system Salmonella typhi. The experiment is described as follows: Antibacterial activity against Salmonella typhi after 24 hrs by agar-diffusion technique. The experiment is classed as functional, Salmonella enterica subsp. enterica serovar Typhi. The conditions noted are these: Salmonella enterica.
Experiment [4] relates to Klebsiella pneumoniae. Put plainly: Antibacterial activity against Klebsiella pneumoniae after 24 hrs by agar-diffusion technique. The experiment is classed as functional. In general terms: Agar diffusion results depend on both activity and mobility in agar.
Experiment [5] deals with Candida albicans. Put plainly: Antifungal activity against Candida albicans after 7 days by disc diffusion technique. In kind it is functional. The conditions noted are these: 168 h.
Experiment [6] has as its system Aspergillus niger. Put plainly: Antifungal activity against Aspergillus niger after 7 days by disc diffusion technique. In kind it is functional. The following applies: 168 h.
For experiment [7], the system named is Aspergillus niger. Put plainly: Antifungal activity against Aspergillus niger at 10 mg/ml after 7 days by disc diffusion technique. The experiment is classed as functional. The following applies: 168 h, read-out: IZ.
The subject of experiment [8] is Pseudomonas aeruginosa. The experiment is described as follows: Antibacterial activity against Pseudomonas aeruginosa at 10 mg/ml after 24 hrs by agar-diffusion technique. The conditions noted are these: read-out: IZ. The experiment is classed as functional.
Experiment [9] deals with Mycobacterium tuberculosis. Put plainly: Antitubercular activity against Mycobacterium tuberculosis H37Rv at 10 ug/ml after 4 weeks by Lowenstein-Jensen medium method. In kind it is functional, organism-based.
The test system of experiment [10] is Mycobacterium tuberculosis. The experiment is described as follows: Antitubercular activity against Mycobacterium tuberculosis H37Rv at 100 ug/ml after 4 weeks by Lowenstein-Jensen medium method. In kind it is functional, organism-based.
The test system of experiment [11] is Aspergillus flavus. The experiment is described as follows: Antifungal activity against Aspergillus flavus after 7 days by disc diffusion technique. In kind it is functional. The conditions noted are these: 168 h.
Experiment [12] relates to Salmonella typhi. Put plainly: Antibacterial activity against Salmonella typhi at 10 mg/ml after 24 hrs by agar-diffusion technique. The conditions noted are these: Salmonella enterica, read-out: IZ. The experiment is classed as functional, Salmonella enterica subsp. enterica serovar Typhi.
The test system of experiment [13] is Mycobacterium tuberculosis. The experiment is described as follows: Antitubercular activity against Mycobacterium tuberculosis H37Rv at 1 ug/ml after 4 weeks by Lowenstein-Jensen medium method. In kind it is functional, organism-based.
The subject of experiment [14] is Escherichia coli. Put plainly: Antibacterial activity against Escherichia coli at 10 mg/ml after 24 hrs by agar-diffusion technique. The conditions noted are these: read-out: IZ. In kind it is functional.
The test system of experiment [15] is Aspergillus flavus. The experiment is described as follows: Antifungal activity against Aspergillus flavus at 10 mg/ml after 7 days by disc diffusion technique. The experiment is classed as functional. The conditions noted are these: 168 h, read-out: IZ.
Experiment [16] deals with Candida tropicalis. Put plainly: Antifungal activity against Candida tropicalis after 7 days by disc diffusion technique. The following applies: 168 h. In kind it is functional.
In experiment [17] the test system is Klebsiella pneumoniae. Put plainly: Antibacterial activity against Klebsiella pneumoniae at 10 mg/ml after 24 hrs by agar-diffusion technique. In kind it is functional. The conditions noted are these: read-out: IZ.
For experiment [18], the system named is Candida albicans. The experiment is described as follows: Antifungal activity against Candida albicans at 10 mg/ml after 7 days by disc diffusion technique. The following applies: 168 h, read-out: IZ. In kind it is functional.
Experiment [19] concerns Pseudomonas aeruginosa. The experiment is described as follows: Antibacterial activity against Pseudomonas aeruginosa after 24 hrs by agar-diffusion technique. In kind it is functional.

One may read the MIC as the least concentration at which growth counts as inhibited. `CCOC(=O)c1c(-c2ccc(OC)cc2)cc(-c2ccco2)c([N+](=O)[O-])c1N`: the zone of inhibition at 10000 µg/mL in [1] was found to be 8 mm; in experiment [7] it was 10 mm; in [8] it was 8 mm; in experiment [12], 7 mm; in [14] it was 10 mm; in experiment [15], 9 mm. The zone of inhibition at 10000 µg/mL in experiment [17] is 9 mm; in [18], 7 mm. The MIC in experiment [2], in experiment [3], in experiment [4], in experiment [5], in experiment [6] and in experiment [11] was 20 µg/mL (≈ 52.3 µM) in each case. Besides, the minimum inhibitory concentration (MIC) in experiment [16] and in [19] was 20 µg/mL (≈ 52.3 µM) each time. For the same compound, the result in experiment [9], in experiment [10] and in experiment [13] was Active.
As for `N#Cc1c(-c2ccccc2)cc(-c2cccs2)c([N+](=O)[O-])c1N`, the zone of inhibition at 10000 µg/mL in [1] was found to be 21 mm; in experiment [7], 15 mm; in experiment [8] it was 10 mm; in [12], 9 mm; in [14] it was 12 mm; in experiment [15] it was 12 mm. For the same compound, the zone of inhibition at 10000 µg/mL was determined as 8 mm in [17] and 24 mm in [18]. The MIC in [2], in [3], in experiment [4], in [5], in [6] and in experiment [11] was 20 µg/mL (≈ 62.2 µM) in each case. In addition, the MIC in [16] and in experiment [19] was 20 µg/mL (≈ 62.2 µM) each time. Also, the result in [9], in experiment [10] and in experiment [13] was Active.
Turning to `N#Cc1c(-c2ccccc2)cc(-c2ccco2)c([N+](=O)[O-])c1N`, the zone of inhibition at 10000 µg/mL worked out at 8 mm in experiment [1]; 8 mm in [7]; 14 mm in experiment [8]; 16 mm in experiment [12]; 17 mm in experiment [14]; 14 mm in experiment [15]. Further, the zone of inhibition at 10000 µg/mL came out at 12 mm in [17] and 10 mm in [18]. The MIC in experiment [2], in experiment [3], in experiment [4], in experiment [5], in [6] and in experiment [11] was 20 µg/mL (≈ 65.5 µM) each time. Moreover, the MIC in [16] and in [19] was 20 µg/mL (≈ 65.5 µM) throughout. Further, the outcome in experiment [9], in experiment [10] and in experiment [13] was Active.
As for `CCOC(=O)c1c(-c2ccc(OC)cc2)cc(-c2ccc[nH]2)c([N+](=O)[O-])c1N`, the zone of inhibition at 10000 µg/mL in experiment [1] turned out to be 10 mm; in experiment [7] it was 10 mm; in [8], 12 mm; in [12], 14 mm; in experiment [14], 10 mm; in experiment [15], 12 mm. Further, the results for the zone of inhibition at 10000 µg/mL in [17] and in experiment [18] were 16 mm and 9 mm, respectively. Besides, the MIC in [2], in experiment [3], in [4], in [5], in experiment [6] and in experiment [11] was 20 µg/mL (≈ 52.4 µM) each time. The MIC in [16] and in experiment [19] was 20 µg/mL (≈ 52.4 µM) throughout. The result in experiment [9], in [10] and in [13] was Active.
`O=C(O)c1cn(C2CC2)c2cc(N3CCNCC3)c(F)cc2c1=O` [CIPROFLOXACIN]: the zone of inhibition at 10000 µg/mL in experiment [8] worked out at 23 mm; in experiment [12], 24 mm; in experiment [17], 22 mm.
As for `Clc1ccccc1C(c1ccccc1)(c1ccccc1)n1ccnc1` [CLOTRIMAZOLE], the zone of inhibition at 10000 µg/mL in [1] is 21 mm; in experiment [7], 23 mm; in experiment [15], 19 mm; in experiment [18], 20 mm.
For the compound `N#Cc1c(-c2ccccc2)cc(-c2ccc[nH]2)c([N+](=O)[O-])c1N`, the zone of inhibition at 10000 µg/mL in experiment [1] was determined as 12 mm; in experiment [7], 20 mm; in [8], 16 mm; in experiment [12] it was 24 mm; in [14], 14 mm; in experiment [15], 16 mm. Moreover, the zone of inhibition at 10000 µg/mL in experiment [17] and in experiment [18] was 18 mm throughout. Moreover, the MIC in [2], in [3], in experiment [4], in experiment [5], in [6] and in [11] was 20 µg/mL (≈ 65.7 µM) throughout. For the same compound, the minimum inhibitory concentration (MIC) in [16] and in experiment [19] was 20 µg/mL (≈ 65.7 µM) throughout. Moreover, the outcome in [9], in experiment [10] and in experiment [13] was Active.
For the compound `NC(=O)c1cnccn1`, the outcome in [9], in [10] and in [13] was Active.
On to `CCOC(=O)c1c(-c2ccc(OC)cc2)cc(-c2cccs2)c([N+](=O)[O-])c1N`, for which the zone of inhibition at 10000 µg/mL in experiment [1] came to 42 mm; in experiment [7], 18 mm; in [8] it was 18 mm; in [12] it was 16 mm; in experiment [14], 14 mm; in [15], 14 mm. Moreover, the zone of inhibition at 10000 µg/mL in [17] came to 20 mm; in experiment [18], 16 mm. Besides, the MIC in [2], in experiment [3], in experiment [4], in experiment [5], in experiment [6] and in experiment [11] was 20 µg/mL (≈ 50.2 µM) each time. In addition, the MIC in experiment [16] and in experiment [19] was 20 µg/mL (≈ 50.2 µM) in each case. Further, the result in experiment [9], in experiment [10] and in experiment [13] was Active.
